# From patent US12410171B2, “Tropomyosin receptor kinase (TRK) degradation compounds and methods of use” (Cullgen (Shanghai), Inc., priority 2020, dated 2025)
# Where two headings read alike, the source gives them in different places.
# Columns and labels:
# KM12 cells = test: KM12 cell viability (CellTiter-Glo); assay type: cell-based; conditions: Homo sapiens, 72 h; KM12 cell viability, CellTiter-Glo, three days treatment; read-out: IC50
# Method in brief: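 Three-day exposure of KM12 cells (5000/well, RPMI 1640 with 10% FBS, 37 °C, 5% CO2) to compound dilution series, 3-fold over 8 or 11 points (top 1000 nM in the 8-point format) or 2-fold over 12. CellTiter-Glo readout, with IC50 fitted by nonlinear least-squares regression.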
# TPM3-TRKA fusion protein = target: T1, TPM3-TRKA fusion protein (Homo sapiens, UniProt P04629); test: TPM3-TRKA fusion protein levels in KM12 cells (Western blot); assay type: cell-based; conditions: read-out: Degradation (at 10 nM)
# T1 construct: The resulted chimeric proteins always retain the kinase domain of TRK proteins; TPM3 (fusion partner, N-terminal part of tropomyosin alpha-3, P06753); endogenous in cells; host or cells: KM12 colon cancer cells; the other entry of the earlier key: TPM3 (P06753, Tropomyosin alpha-3 chain)
# T1 sequence (P04629 with tags, fused parts or gaps): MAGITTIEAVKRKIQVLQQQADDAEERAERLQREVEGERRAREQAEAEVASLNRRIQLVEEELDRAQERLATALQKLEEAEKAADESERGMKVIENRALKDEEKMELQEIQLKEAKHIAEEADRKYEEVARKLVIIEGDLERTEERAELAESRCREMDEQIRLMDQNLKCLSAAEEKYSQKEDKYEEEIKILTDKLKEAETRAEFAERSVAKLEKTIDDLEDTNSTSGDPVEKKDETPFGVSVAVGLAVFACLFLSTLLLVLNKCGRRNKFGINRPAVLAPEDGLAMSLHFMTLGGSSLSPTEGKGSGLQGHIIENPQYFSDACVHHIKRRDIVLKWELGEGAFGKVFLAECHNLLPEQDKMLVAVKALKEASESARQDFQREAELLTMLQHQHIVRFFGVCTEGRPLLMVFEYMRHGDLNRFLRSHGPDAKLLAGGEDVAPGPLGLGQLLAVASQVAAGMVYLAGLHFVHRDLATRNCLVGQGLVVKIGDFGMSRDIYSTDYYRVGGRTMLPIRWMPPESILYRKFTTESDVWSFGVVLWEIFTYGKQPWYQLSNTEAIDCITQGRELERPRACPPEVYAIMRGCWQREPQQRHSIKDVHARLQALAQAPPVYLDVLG
# Method in brief: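 TPM3-TRKA levels were assessed by Western blot with chemiluminescent detection and band densitometry, after SDS-PAGE of BCA-normalized RIPA lysates. Before lysis, KM12 cells received DMSO, compounds or matched control compounds at concentrations including 0.1, 1, 10 and 100 nM and 0.4–30 nM. Exposures lasted 4 h, 8–16 h or 16 h.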
# [1] = 16 h, TPM3-TRKA degradation in KM12 cells at 10 nM compound, category of percentage degradation
SMILES,percent degradation of TPM3-TRKA protein at 0.01 µM (TPM3-TRKA fusion protein; [1]) [%],IC50 (KM12 cells) [nM],"percent degradation of TPM3-TRKA protein at 0.01 µM (TPM3-TRKA fusion protein; KM12, 16 h) [%]"
"O=C1CCC(N2C(=O)c3ccc(N4CC(NC5CCN(c6cccc(-c7cnc8ccc(N9CCC[C@@H]9c9cccc(F)c9)nn78)n6)CC5)C4)cc3C2=O)C(=O)N1 (stereo partly drawn) [TR-288, 2-(2,6-dioxopiperidin-3-yl)-5-(3-((1-(6-(6-((R)-2-(3-fluorophenyl)pyrrolidin-1-yl)imidazo[1,2-b]pyridazin-3-yl)pyridin-2-yl)piperidin-4-yl)amino)azetidin-1-yl)isoindoline-1,3-dione]",–,9.2,> 80
"O=C1CCC(N2C(=O)c3ccc(NC4CCC(N5CCN(c6ccc(C(=O)Nc7n[nH]c8ccc(Cc9cc(F)cc(F)c9)cc78)c(NC7CCOCC7)c6)CC5)CC4)cc3C2=O)C(=O)N1 (centres unmarked) [TR-289, N-(5-(3,5-Difluorobenzyl)-1H-indazol-3-yl)-4-(4-(4-((2-(2,6-dioxopiperidin-3-yl)-1,3-dioxoisoindolin-5-yl)amino)cyclohexyl)piperazin-1-yl)-2-((tetrahydro-2H-pyran-4-yl)amino)benzamide]",> 80,3.8,–
"O=C1CCC(N2C(=O)c3ccc(N4CCC5(CC(N6CCN(c7ccc(C(=O)Nc8n[nH]c9ccc(Cc%10cc(F)cc(F)c%10)cc89)c(NC8CCOCC8)c7)CC6)C5)C4)cc3C2=O)C(=O)N1 (centres unmarked) [TR-290, N-(5-(3,5-difluorobenzyl)-1H-indazol-3-yl)-4-(4-(6-(2-(2,6-dioxopiperidin-3-yl)-1,3-dioxoisoindolin-5-yl)-6-azaspiro[3.4]octan-2-yl)piperazin-1-yl)-2-((tetrahydro-2H-pyran-4-yl)amino)benzamide]",> 80,11.2,–
"O=C1CCC(N2C(=O)c3ccc(C4CN(CCN5CCN(c6cccc(-c7cnc8ccc(N9CCC[C@@H]9c9cccc(F)c9)nn78)n6)CC5)C4)cc3C2=O)C(=O)N1 (stereo partly drawn) [TR-292, 2-(2,6-dioxopiperidin-3-yl)-5-(1-(2-(4-(6-(6-((R)-2-(3-fluorophenyl)pyrrolidin-1-yl)imidazo[1,2-b]pyridazin-3-yl)pyridin-2-yl)piperazin-1-yl)ethyl)azetidin-3-yl)isoindoline-1,3-dione]",> 80,8.2,–
"O=C1CCC(N2C(=O)c3ccc(C4CN(CC5CCN(c6cccc(-c7cnc8ccc(N9CCC[C@@H]9c9cccc(F)c9)nn78)n6)CC5)C4)cc3C2=O)C(=O)N1 (stereo partly drawn) [TR-293, 2-(2,6-dioxopiperidin-3-yl)-5-(1-((1-(6-(6-((R)-2-(3-fluorophenyl)pyrrolidin-1-yl)imidazo[1,2-b]pyridazin-3-yl)pyridin-2-yl)piperidin-4-yl)methyl)azetidin-3-yl)isoindoline-1,3-dione]",> 80,9.5,–
"O=C1CCC(N2C(=O)c3cccc(CN4CC(CN5CCN(c6cccc(-c7cnc8ccc(N9CCC[C@@H]9c9cccc(F)c9)nn78)n6)CC5)C4)c3C2=O)C(=O)N1 (stereo partly drawn) [TR-294, 2-(2,6-Dioxopiperidin-3-yl)-4-((3-((4-(6-(6-((R)-2-(3-fluorophenyl)pyrrolidin-1-yl)imidazo[1,2-b]pyridazin-3-yl)pyridin-2-yl)piperazin-1-yl)methyl)azetidin-1-yl)methyl)isoindoline-1,3-dione]",> 80,12.5,–
Cc1nc2cccc(N3CC(CN4CCN(c5cccc(-c6cnc7ccc(N8CCC[C@@H]8c8cccc(F)c8)nn67)n5)CC4)C3)c2c(=O)n1C1CCC(=O)NC1=O (some centres unmarked) [TR-295],50 to 80,30,–
"O=C1CCC(N2Cc3cc(C4CN(C5CCN(c6cccc(-c7cnc8ccc(N9CCC[C@@H]9c9cccc(F)c9)nn78)n6)CC5)C4)ccc3C2=O)C(=O)N1 (stereo partly drawn) [TR-302, 3-(5-(1-(1-(6-(6-((R)-2-(3-fluorophenyl)pyrrolidin-1-yl)imidazo[1,2-b]pyridazin-3-yl)pyridin-2-yl)piperidin-4-yl)azetidin-3-yl)-1-oxoisoindolin-2-yl)piperidine-2,6-dione]",–,1.7,> 80
"O=C1CCC(N2C(=O)c3ccc(C4CN(C5CCN(c6cccc(-c7cnc8ccc(N9CCC[C@@H]9c9cccc(F)c9)nn78)n6)CC5)C4)cc3C2=O)C(=O)N1 (stereo partly drawn) [TR-308, 2-(2,6-dioxopiperidin-3-yl)-5-(1-(1-(6-(6-((R)-2-(3-fluorophenyl)pyrrolidin-1-yl)imidazo[1,2-b]pyridazin-3-yl)pyridin-2-yl)piperidin-4-yl)azetidin-3-yl)isoindoline-1,3-dione]",–,11.8,> 80

# Further lines, with some results ahead:
percent degradation of TPM3-TRKA protein at 0.01 µM (TPM3-TRKA fusion protein; [1]) [%],SMILES,IC50 (KM12 cells) [nM],"percent degradation of TPM3-TRKA protein at 0.01 µM (TPM3-TRKA fusion protein; KM12, 16 h) [%]"
50 to 80,O=C1CCC(n2nnc3cccc(N4CC(CN5CCN(c6cccc(-c7cnc8ccc(N9CCC[C@@H]9c9cccc(F)c9)nn78)n6)CC5)C4)c3c2=O)C(=O)N1 (some centres unmarked) [TR-296],22,–
50 to 80,O=C1CCC(n2nnc3cccc(N4CC(CCN5CCN(c6cccc(-c7cnc8ccc(N9CCC[C@@H]9c9cccc(F)c9)nn78)n6)CC5)C4)c3c2=O)C(=O)N1 (some centres unmarked) [TR-297],39,–
> 80,"O=C1CCC(N2Cc3ccc(C#CCN4CCN(c5ccc(C(=O)Nc6n[nH]c7ccc(Cc8cc(F)cc(F)c8)cc67)c(NC6CCOCC6)c5)CC4)cc3C2=O)C(=O)N1 (stereo not drawn) [TR-298, N—(S-(3,5-Difluorobenzyl)-1H-indazol-3-yl)-4-(4-(3-(2-(2,6-dioxopiperidin-3-yl)-3-oxoisoindolin-5-yl)prop-2-yn-1-yl)piperazin-1-yl)-2-((tetrahydro-2/-pyran-4-yl)amino)benzamide]",30,–
> 80,"O=C1CCC(N2C(=O)c3ccc(NC4CCC(N5CCN(c6ccc(C(=O)Nc7n[nH]c8ccc(Cc9cc(F)cc(F)c9)cc78)c(NC7CCOCC7)c6)CC5)C4)cc3C2=O)C(=O)N1 (centres unmarked) [TR-299, N-(5-(3,5-Difluorobenzyl)-1H-indazol-3-yl)-4-(4-(3-((2-(2,6-dioxopiperidin-3-yl)-1,3-dioxoisoindolin-S-yl)amino)cyclopentyl)piperazin-1-yl)-2-((tetrahydro-2/-pyran-4-yl)amino)benzamide]",23,–
50 to 80,"O=C1CCC(N2Cc3cc(N4CC(CN5CCN(c6ccc(C(=O)Nc7n[nH]c8ccc(Cc9cc(F)cc(F)c9)cc78)c(NC7CCOCC7)c6)CC5)C4)ccc3C2=O)C(=O)N1 (stereo not drawn) [TR-300, N—(S-(3,5-Difluorobenzyl)-1H-indazol-3-yl)-4-(4-((1˜ (2˜ (2,6-dioxopiperidin-3-yl)-1-oxoisoindolin-5-yl)azetidin-3-yl)methyl)piperazin-1-yl)-2-((tetrahydro-2H-pyran-4-yl)amino)benzamide]",53,–
> 80,"CC(C1CN(c2ccc3c(c2)C(=O)N(C2CCC(=O)NC2=O)C3=O)C1)N1CCN(c2ccc(C(=O)Nc3n[nH]c4ccc(Cc5cc(F)cc(F)c5)cc34)c(NC3CCOCC3)c2)CC1 (centres unmarked) [TR-301, N-(5-(3,5-difluorobenzyl)-1H-indazol-3-yl)-4-(4-(1-(1-(2-(2,6-dioxopiperidin-3-yl)-1,3-dioxoisoindolin-5-yl)azetidin-3-yl)ethyl)piperazin-1-yl)-2-((tetrahydro-2H-pyran-4-yl)amino)benzamide]",6,–
> 80,"Cn1c(=O)n(C2CCC(=O)NC2=O)c2cccc(C#CCN3CCN(c4ccc(C(=O)Nc5n[nH]c6ccc(Cc7cc(F)cc(F)c7)cc56)c(NC5CCOCC5)c4)CC3)c21 (centres unmarked) [TR-303, N-(5-(3,5˜Difluorobenzyl)-1H-indazol-3-yl)-4-(4-(3-(1-(2,6-dioxopiperidin-3-yl)-3-methyl-2-oxo-2,3˜dihydro-1/7-benzo[d]imidazol-4-yl)prop-2-yn-1-yl)piperazin-1-yl)-2-((tetrahydro-2/-pyran-4-yl)amino)benzamide]",8.4,–
> 80,"Cn1c(=O)n(C2CCC(=O)NC2=O)c2cccc(CCCCN3CCN(c4ccc(C(=O)Nc5n[nH]c6ccc(Cc7cc(F)cc(F)c7)cc56)c(NC5CCOCC5)c4)CC3)c21 (centres unmarked) [TR-304, N-(5-(3,5-difluorobenzyl)-1H-indazol-3-yl)-4-(4-(4-(1-(2,6-dioxopiperidin-3-yl)-3-methyl-2-oxo-2,3-dihydro-1H-benzo[d]imidazol-4-yl)butyl)piperazin-1-yl)-2-((tetrahydro-2H-pyran-4-yl)amino)benzamide]",1.5,–
> 80,"Cn1c(=O)n(C2CCC(=O)NC2=O)c2cccc(CCCN3CCN(c4ccc(C(=O)Nc5n[nH]c6ccc(Cc7cc(F)cc(F)c7)cc56)c(NC5CCOCC5)c4)CC3)c21 (centres unmarked) [TR-305, N-(5-(3,5˜Difluorobenzyl)-1H-indazol-3-yl)-4-(4-(3-(1-(2,6-dioxopiperidin-3-yl)-3-methyl-2-oxo-2,3-dihydro-1H-benzo[d]imidazol-4-yl)propyl)piperazin-1-yl)-2-((tetrahydro-2H-pyran-4-yl)amino)benzamide]",2.5,–
> 80,"Cn1c(=O)n(C2CCC(=O)NC2=O)c2cccc(C#CCCN3CCN(c4ccc(C(=O)Nc5n[nH]c6ccc(Cc7cc(F)cc(F)c7)cc56)c(NC5CCOCC5)c4)CC3)c21 (centres unmarked) [TR-306, N-(5-(3,5-difluorobenzyl)-1H-indazol-3-yl)-4-(4-(4-(1-(2,6-dioxopiperidin-3-yl)-3-methyl-2-oxo-2,3-dihydro-1H-benzo[d]imidazol-4-yl)but-3-yn-1-yl)piperazin-1-yl)-2-((tetrahydro-2H-pyran-4-yl)amino)benzamide]",4,–
